Experiments:
[1] = The drug is tested on Bacteroides vulgatus strain: ATCC8482 for biotransformation. The drug concentrations were measured before and after a 12-h incubation by liquid-chromatography-coupled mass spectrometry (LC–MS); settings: phocaeicola vulgatus, 2 µM
[2] = The drug is tested on Bacteroides xylanisolvens strain: DSM18836 for biotransformation. The drug concentrations were measured before and after a 12-h incubation by liquid-chromatography-coupled mass spectrometry (LC–MS); settings: 2 µM
[3] = The drug is tested on Clostridium sporogenes strain: ATCC15579 for biotransformation. The drug concentrations were measured before and after a 12-h incubation by liquid-chromatography-coupled mass spectrometry (LC–MS); settings: 2 µM
[4] = The drug is tested on Coprococcus comes strain: ATCC27758 for biotransformation. The drug concentrations were measured before and after a 12-h incubation by liquid-chromatography-coupled mass spectrometry (LC–MS); type: ADME; design: dose 2 uM, timepoint 0 vs 12 hours; settings: 2 µM
[5] = The drug is tested on Ruminococcus torques strain: ATCC27756 for biotransformation. The drug concentrations were measured before and after a 12-h incubation by liquid-chromatography-coupled mass spectrometry (LC–MS); type: ADME; design: dose 2 uM, timepoint 0 vs 12 hours; settings: 2 µM
[6] = The drug is tested on Providencia rettgeri strain: DSM1131 for biotransformation. The drug concentrations were measured before and after a 12-h incubation by liquid-chromatography-coupled mass spectrometry (LC–MS); type: ADME; design: dose 2 uM, timepoint 0 vs 12 hours; settings: 2 µM
[7] = bifidobacterium adolescentis, 12 h, 2 µM
Description: The drug is tested on Bifidobacterium adolescentis strain: ATCC 15703 for biotransformation. The drug concentrations were measured before and after a 12-h incubation by liquid-chromatography-coupled mass spectrometry (LC–MS)

[8] = bacteroides eggerthii, 12 h, 2 µM
Description: The drug is tested on Bacteroides eggerthii strain: DSM20697 for biotransformation. The drug concentrations were measured before and after a 12-h incubation by liquid-chromatography-coupled mass spectrometry (LC–MS)

[9] = bacteroides fragilis, 12 h, 2 µM
Description: The drug is tested on Bacteroides fragilis strain: DS-208 for biotransformation. The drug concentrations were measured before and after a 12-h incubation by liquid-chromatography-coupled mass spectrometry (LC–MS)

[10] = The drug is tested on Odoribacter splanchnicus strain: fecal isolate for biotransformation. The drug concentrations were measured before and after a 12-h incubation by liquid-chromatography-coupled mass spectrometry (LC–MS); settings: 2 µM
[11] = The drug is tested on Eubacterium rectale strain: ATCC33656 for biotransformation. The drug concentrations were measured before and after a 12-h incubation by liquid-chromatography-coupled mass spectrometry (LC–MS); settings: agathobacter rectalis, 2 µM
[12] = bacteroides fragilis, 12 h, 2 µM; remark: listed apart in the source
Description: The drug is tested on Bacteroides fragilis strain: 3397 (T10) for biotransformation. The drug concentrations were measured before and after a 12-h incubation by liquid-chromatography-coupled mass spectrometry (LC–MS)

[13] = bacteroides stercoris, 12 h, 2 µM
Description: The drug is tested on Bacteroides stercoris strain: ATCC43183 for biotransformation. The drug concentrations were measured before and after a 12-h incubation by liquid-chromatography-coupled mass spectrometry (LC–MS)

[14] = parabacteroides johnsonii, 12 h, 2 µM
Description: The drug is tested on Parabacteroides johnsonii strain: DSM18315 for biotransformation. The drug concentrations were measured before and after a 12-h incubation by liquid-chromatography-coupled mass spectrometry (LC–MS)

[15] = limosilactobacillus reuteri cf48-3a, 12 h, 2 µM
Description: The drug is tested on Lactobacillus reuteri CF48-3A strain: BEI HM-102 for biotransformation. The drug concentrations were measured before and after a 12-h incubation by liquid-chromatography-coupled mass spectrometry (LC–MS)

[16] = roseburia intestinalis, 12 h, 2 µM
Description: The drug is tested on Roseburia intestinalis strain: L1-82 for biotransformation. The drug concentrations were measured before and after a 12-h incubation by liquid-chromatography-coupled mass spectrometry (LC–MS)

[17] = akkermansia muciniphila, 12 h, 2 µM
Description: The drug is tested on Akkermansia muciniphila strain: ATCC BAA-835 for biotransformation. The drug concentrations were measured before and after a 12-h incubation by liquid-chromatography-coupled mass spectrometry (LC–MS)

[18] = The drug is tested on Bacteroides uniformis strain: ATCC8492 for biotransformation. The drug concentrations were measured before and after a 12-h incubation by liquid-chromatography-coupled mass spectrometry (LC–MS); settings: 2 µM
[19] = The drug is tested on Bifidobacterium ruminantium strain: fecal isolate for biotransformation. The drug concentrations were measured before and after a 12-h incubation by liquid-chromatography-coupled mass spectrometry (LC–MS); settings: 2 µM

Q: Which results are given for `CCN(CC)CCOC(=O)C1(C2CCCCC2)CCCCC1` [DICYCLOMINE]?
A: Bacterial Biotransformation [1]: Compound metabolized; Bacterial Biotransformation [2]: Compound metabolized; Bacterial Biotransformation [3]: Compound NOT metabolized; Bacterial Biotransformation [4]: Compound NOT metabolized; Bacterial Biotransformation [5]: Compound metabolized; Bacterial Biotransformation [6]: Compound NOT metabolized; Bacterial Biotransformation [7]: Compound NOT metabolized; Bacterial Biotransformation [8]: Compound NOT metabolized; Bacterial Biotransformation [9]: Compound NOT metabolized

Q: With `CC(C)N(CCC(C(N)=O)(c1ccccc1)c1ccccn1)C(C)C.O=P(O)(O)O` (stereo not drawn) [DISOPYRAMIDE PHOSPHATE] as the molecule, how does the “Bacterial Biotransformation” value [2] read?
A: Compound NOT metabolized

Q: And the “Bacterial Biotransformation” value [10]?
A: Compound NOT metabolized

Q: What about the “Bacterial Biotransformation” value [4] of the same molecule?
A: Compound NOT metabolized

Q: What about the “Bacterial Biotransformation” value [11] of the same molecule?
A: Compound NOT metabolized

Q: And the “Bacterial Biotransformation” value [6]?
A: Compound NOT metabolized

Q: What about the “Bacterial Biotransformation” value [7] of the same molecule?
A: Compound NOT metabolized

Q: And the “Bacterial Biotransformation” value [8]?
A: Compound NOT metabolized

Q: And the “Bacterial Biotransformation” value [12]?
A: Compound NOT metabolized

Q: And the “Bacterial Biotransformation” value [9]?
A: Compound NOT metabolized

Q: What about the “Bacterial Biotransformation” value [13] of the same molecule?
A: Compound NOT metabolized

Q: What about the “Bacterial Biotransformation” value [14] of the same molecule?
A: Compound NOT metabolized

Q: What about the “Bacterial Biotransformation” value [15] of the same molecule?
A: Compound NOT metabolized

Q: And the “Bacterial Biotransformation” value [16]?
A: Compound NOT metabolized

Q: And the “Bacterial Biotransformation” value [17]?
A: Compound NOT metabolized

Q: For `COc1cc2nc(N3CCN(C(=O)C4COc5ccccc5O4)CC3)nc(N)c2cc1OC.CS(=O)(=O)O` (stereo not drawn) [DOXAZOSIN MESYLATE], which “Bacterial Biotransformation” value [18] is on record?
A: Compound metabolized

Q: And the “Bacterial Biotransformation” value [10]?
A: Compound NOT metabolized

Q: What about the “Bacterial Biotransformation” value [4] of the same molecule?
A: Compound NOT metabolized

Q: What about the “Bacterial Biotransformation” value [5] of the same molecule?
A: Compound NOT metabolized

Q: And the “Bacterial Biotransformation” value [6]?
A: Compound NOT metabolized

Q: And the “Bacterial Biotransformation” value [7]?
A: Compound NOT metabolized

Q: And the “Bacterial Biotransformation” value [8]?
A: Compound NOT metabolized

Q: And the “Bacterial Biotransformation” value [12]?
A: Compound NOT metabolized

Q: And the “Bacterial Biotransformation” value [9]?
A: Compound NOT metabolized

Q: What about the “Bacterial Biotransformation” value [13] of the same molecule?
A: Compound NOT metabolized

Q: And the “Bacterial Biotransformation” value [14]?
A: Compound NOT metabolized

Q: And the “Bacterial Biotransformation” value [16]?
A: Compound NOT metabolized

Q: What about the “Bacterial Biotransformation” value [17] of the same molecule?
A: Compound NOT metabolized

Q: Which “Bacterial Biotransformation” value [18] does the source give for `CC(=O)OCC(CCn1cnc2cnc(N)nc21)COC(C)=O` [FAMCICLOVIR] here?
A: Compound metabolized

Q: What about the “Bacterial Biotransformation” value [1] of the same molecule?
A: Compound metabolized

Q: What about the “Bacterial Biotransformation” value [2] of the same molecule?
A: Compound metabolized

Q: What about the “Bacterial Biotransformation” value [10] of the same molecule?
A: Compound metabolized

Q: And the “Bacterial Biotransformation” value [3]?
A: Compound NOT metabolized

Q: What about the “Bacterial Biotransformation” value [4] of the same molecule?
A: Compound NOT metabolized

Q: And the “Bacterial Biotransformation” value [11]?
A: Compound NOT metabolized

Q: What about the “Bacterial Biotransformation” value [5] of the same molecule?
A: Compound NOT metabolized

Q: And the “Bacterial Biotransformation” value [6]?
A: Compound NOT metabolized

Q: What about the “Bacterial Biotransformation” value [8] of the same molecule?
A: Compound metabolized

Q: What about the “Bacterial Biotransformation” value [12] of the same molecule?
A: Compound metabolized

Q: What about the “Bacterial Biotransformation” value [9] of the same molecule?
A: Compound metabolized

Q: And the “Bacterial Biotransformation” value [13]?
A: Compound metabolized

Q: What about the “Bacterial Biotransformation” value [14] of the same molecule?
A: Compound metabolized

Q: And the “Bacterial Biotransformation” value [15]?
A: Compound NOT metabolized

Q: What about the “Bacterial Biotransformation” value [16] of the same molecule?
A: Compound NOT metabolized

Q: What about the “Bacterial Biotransformation” value [17] of the same molecule?
A: Compound NOT metabolized

Q: For `CC(C)c1c(CN(C)C(C)Cc2ccccc2)n(C)n(-c2ccccc2)c1=O` (stereo not drawn) [FAMPROFAZONE], which “Bacterial Biotransformation” value [18] is on record?
A: Compound metabolized

Q: And the “Bacterial Biotransformation” value [1]?
A: Compound metabolized

Q: What about the “Bacterial Biotransformation” value [2] of the same molecule?
A: Compound metabolized

Q: What about the “Bacterial Biotransformation” value [10] of the same molecule?
A: Compound metabolized

Q: What about the “Bacterial Biotransformation” value [3] of the same molecule?
A: Compound NOT metabolized

Q: What about the “Bacterial Biotransformation” value [4] of the same molecule?
A: Compound NOT metabolized

Q: And the “Bacterial Biotransformation” value [11]?
A: Compound NOT metabolized

Q: And the “Bacterial Biotransformation” value [5]?
A: Compound NOT metabolized

Q: And the “Bacterial Biotransformation” value [6]?
A: Compound NOT metabolized

Q: And the “Bacterial Biotransformation” value [7]?
A: Compound NOT metabolized

Q: And the “Bacterial Biotransformation” value [8]?
A: Compound metabolized

Q: What about the “Bacterial Biotransformation” value [12] of the same molecule?
A: Compound metabolized

Q: And the “Bacterial Biotransformation” value [9]?
A: Compound metabolized

Q: And the “Bacterial Biotransformation” value [13]?
A: Compound metabolized

Q: And the “Bacterial Biotransformation” value [14]?
A: Compound metabolized

Q: And the “Bacterial Biotransformation” value [15]?
A: Compound metabolized

Q: What about the “Bacterial Biotransformation” value [16] of the same molecule?
A: Compound NOT metabolized

Q: And the “Bacterial Biotransformation” value [17]?
A: Compound metabolized

Q: What does the source list for `Cc1ccc(NC(=O)c2ccc(CN3CCN(C)CC3)cc2)cc1Nc1nccc(-c2cccnc2)n1` [IMATINIB]?
A: Bacterial Biotransformation [19]: Compound NOT metabolized; Bacterial Biotransformation [18]: Compound NOT metabolized; Bacterial Biotransformation [1]: Compound metabolized; Bacterial Biotransformation [2]: Compound metabolized; Bacterial Biotransformation [10]: Compound NOT metabolized; Bacterial Biotransformation [4]: Compound NOT metabolized; Bacterial Biotransformation [5]: Compound NOT metabolized; Bacterial Biotransformation [7]: Compound NOT metabolized; Bacterial Biotransformation [8]: Compound NOT metabolized; Bacterial Biotransformation [9]: Compound NOT metabolized; Bacterial Biotransformation [13]: Compound NOT metabolized; Bacterial Biotransformation [14]: Compound NOT metabolized; Bacterial Biotransformation [16]: Compound NOT metabolized; Bacterial Biotransformation [17]: Compound NOT metabolized

Q: Which results are given for `CC(CCc1ccccc1)NCC(O)c1ccc(O)c(C(N)=O)c1` (stereo not drawn) [LABETALOL]?
A: Bacterial Biotransformation [18]: Compound NOT metabolized; Bacterial Biotransformation [1]: Compound NOT metabolized; Bacterial Biotransformation [2]: Compound NOT metabolized; Bacterial Biotransformation [10]: Compound NOT metabolized; Bacterial Biotransformation [3]: Compound NOT metabolized; Bacterial Biotransformation [4]: Compound NOT metabolized; Bacterial Biotransformation [11]: Compound NOT metabolized; Bacterial Biotransformation [5]: Compound NOT metabolized; Bacterial Biotransformation [6]: Compound NOT metabolized; Bacterial Biotransformation [7]: Compound NOT metabolized; Bacterial Biotransformation [8]: Compound NOT metabolized; Bacterial Biotransformation [12]: Compound NOT metabolized; Bacterial Biotransformation [9]: Compound NOT metabolized; Bacterial Biotransformation [13]: Compound NOT metabolized; Bacterial Biotransformation [14]: Compound NOT metabolized; Bacterial Biotransformation [15]: Compound NOT metabolized; Bacterial Biotransformation [16]: Compound NOT metabolized; Bacterial Biotransformation [17]: Compound NOT metabolized

Q: What does the source list for `COc1ccc2cc([C@H](C)C(=O)O)ccc2c1` [NAPROXEN]?
A: Bacterial Biotransformation [18]: Compound NOT metabolized; Bacterial Biotransformation [1]: Compound NOT metabolized; Bacterial Biotransformation [2]: Compound NOT metabolized; Bacterial Biotransformation [10]: Compound NOT metabolized; Bacterial Biotransformation [4]: Compound NOT metabolized; Bacterial Biotransformation [11]: Compound NOT metabolized; Bacterial Biotransformation [5]: Compound NOT metabolized; Bacterial Biotransformation [6]: Compound NOT metabolized; Bacterial Biotransformation [8]: Compound NOT metabolized; Bacterial Biotransformation [12]: Compound NOT metabolized; Bacterial Biotransformation [9]: Compound NOT metabolized; Bacterial Biotransformation [15]: Compound NOT metabolized; Bacterial Biotransformation [16]: Compound NOT metabolized; Bacterial Biotransformation [17]: Compound NOT metabolized

Q: Which results are given for `CO[C@]12C[C@@H](COC(=O)c3cncc(Br)c3)CN(C)[C@@H]1Cc1cn(C)c3cccc2c13` [NICERGOLINE]?
A: Bacterial Biotransformation [19]: Compound NOT metabolized; Bacterial Biotransformation [18]: Compound metabolized; Bacterial Biotransformation [1]: Compound metabolized; Bacterial Biotransformation [2]: Compound NOT metabolized; Bacterial Biotransformation [10]: Compound NOT metabolized; Bacterial Biotransformation [3]: Compound NOT metabolized; Bacterial Biotransformation [5]: Compound NOT metabolized; Bacterial Biotransformation [7]: Compound NOT metabolized; Bacterial Biotransformation [8]: Compound NOT metabolized; Bacterial Biotransformation [12]: Compound NOT metabolized; Bacterial Biotransformation [9]: Compound NOT metabolized; Bacterial Biotransformation [13]: Compound NOT metabolized; Bacterial Biotransformation [14]: Compound NOT metabolized; Bacterial Biotransformation [15]: Compound NOT metabolized; Bacterial Biotransformation [16]: Compound NOT metabolized; Bacterial Biotransformation [17]: Compound NOT metabolized
